Marks after values point to notes of the source that are not given here.
Columns and labels:
[1] = Solubility and solution pressure of blowing agents in Quantum "Petrothene" grade low density polyethylene, same procedure; assay type: physicochemical
[2] = Solubility and solution pressure of blowing agents in polystyrene resin, calculated with the Flory-Huggins equation; assay type: physicochemical; settings: for WT% Blowing Agent Dissolves in Resin: atmospheric pressure (14.7 psia, 1 bar)
From the text: Certain aspects of the invention are illustrated by the Figures. The accompanying figures illustrate the suitability of HFC-134 as blowing agent for producing polystyrenic foam bodies, the data presented therein were obtained with the aid of the well-known Flory-Huggins equation (Flory, P.J.: "Principles of Polymer Chemistry"; Cornell University Press, Ithaca, N.Y.), discussed below.
These equilibrium pressures relate to the point in the extrusion process where blowing agent is mixed with resin; foaming cannot occur at these pressures.
The data presented in Figures 3-6 were determined through use of the Flory-Huggins equation for phase equilibria in polymer solutions. This equation uses values for the following parameters [(1) - (4)], which were obtained as follows: (1) liquid densities of the blowing agents, g/cc, were derived by using standard methods, drawing a straight line through the liquid density data (based on National Institute of Standards and Technology, NIST, experimental data; with equations based on the Modified Benedict-Webb-Rubin, MBWR, equation of state) from -50°C to 50°C and calculating the liquid density as a function of temperature. The density (d) equation recites: d=AT+B, wherein A is the slope of the line, B is the constant of the line, and T temperature (°C). The liquid densities are (grams/cubic centimeter, g/cm^3):
(2) The densities of the superheated vapors of the blowing agents, which are tabulated below, were calculated from the known vapor data of their thermodynamic properties (based on National Institute of Standards and Technology, NIST, experimental data; with equations based on the Modified Benedict-Webb-Rubin, MBWR, equation of state).
(3) The activity coefficients for the blowing agents that are tabulated below:
These coefficients were determined by dividing the experimental blowing agent partial pressure by the saturated vapor pressure at that temperature. (4) The interaction parameters, X1, were determined at four temperatures, and are presented graphically as a function of temperature in Figure 2 by means of the following equation and equation constants: X1 = A/T + B [formula] (where T = °K = °C + 273.2)
Such data are presented graphically in Figures 3, 4, 5 and 6. Figures 3-6 are plots of "weight% Blowing Agent Dissolved in Resin vs. Pressure of Solution" as a function of temperature. Representative solubilities of the blowing agents in the given resin at various extrusion process temperatures at atmospheric pressure (14.7 psia, 1 bar), are listed below in Table 1: Table 1

[3] = polystyrene resin, 25°C (footnote *)
[4] = low density polyethylene, 25°C, 1 Atm
[5] = low density polyethylene, 180°C, 1 Atm
[6] = low density polyethylene, Extruder Temp 180°C

FC(F)C(F)F [HFC-134, 1,1,2,2-tetrafluoroethane]
Limiting Solubility (wt % HFC) [1]: 81 wt % HFC
Solubility (wt % HFC) at 1 Atm of HFC Pres. 25°C [1]: 0.64 wt % HFC
Solubility (wt % HFC) at 1 Atm of HFC Pres. Ext Temp [1]: 0.20 wt % HFC
HFC-134/HFC-134a solubility ratio [2]: about 2/1
Limiting Solubility (wt % HFC) [2]: 81 wt % HFC
Solubility (wt % HFC) at 1 Atm of HFC Pres. 25°C [2]: 0.54 wt % HFC
Solubility (wt % HFC) at 1 Atm of HFC Pres. Ext Temp [2]: 0.2 wt % HFC
WT% Blowing Agent Dissolves in Resin [2, 3]: 0.6* WT%
WT% Blowing Agent Dissolves in Resin ([2]; polystyrene resin, 60°C): 0.5 WT%
WT% Blowing Agent Dissolves in Resin ([2]; polystyrene resin, 100°C): 0.4 WT%
WT% Blowing Agent Dissolves in Resin ([2]; polystyrene resin, 140°C): 0.3 WT%
WT% Blowing Agent Dissolves in Resin ([2]; polystyrene resin, 180°C): 0.2 WT%
WT% Blowing Agent Dissolves in Resin ([2]; polystyrene resin, 200°C): 0.15 WT%

CC(F)F [HFC-152a, 1,1-difluoroethane]
Limiting Solubility (wt % HFC) [2]: 83 wt % HFC
Solubility (wt % HFC) at 1 Atm of HFC Pres. 25°C [2]: 0.76 wt % HFC
Solubility (wt % HFC) at 1 Atm of HFC Pres. Ext Temp [2]: 0.2 wt % HFC
WT% Blowing Agent Dissolves in Resin ([2]; polystyrene resin, 20°C): 0.8 WT%
WT% Blowing Agent Dissolves in Resin ([2]; polystyrene resin, 60°C): 0.5 WT%
WT% Blowing Agent Dissolves in Resin ([2]; polystyrene resin, 100°C): 0.4 WT%
WT% Blowing Agent Dissolves in Resin ([2]; polystyrene resin, 140°C): 0.3 WT%
WT% Blowing Agent Dissolves in Resin ([2]; polystyrene resin, 180°C): 0.2 WT%
WT% Blowing Agent Dissolves in Resin ([2]; polystyrene resin, 200°C): 0.15 WT%

FCC(F)(F)F [HFC-134a, 1,1,1,2-tetrafluoroethane]
Solubility (wt % HFC) at 1 Atm of HFC Pres. 25°C [1, 4]: 0.22 wt % HFC
Solubility (wt % HFC) at 1 Atm of HFC Pres. Ext Temp [1, 5]: 0.14 wt % HFC
Limiting Solubility (wt % HFC) [1, 6]: 74 wt % HFC
WT% Blowing Agent Dissolves in Resin [2, 3]: 0.16* WT%
Solubility (wt % HFC) at 1 Atm of HFC Pres. 25°C ([2]; polystyrene resin, 25°C, 1 Atm): 0.16 wt % HFC
WT% Blowing Agent Dissolves in Resin ([2]; polystyrene resin, 60°C): 0.2 WT%
WT% Blowing Agent Dissolves in Resin ([2]; polystyrene resin, 100°C): 0.19 WT%
WT% Blowing Agent Dissolves in Resin ([2]; polystyrene resin, 140°C): 0.15 WT%
Solubility (wt % HFC) at 1 Atm of HFC Pres. Ext Temp ([2]; polystyrene resin, 180°C, 1 Atm): 0.11 wt % HFC
WT% Blowing Agent Dissolves in Resin ([2]; polystyrene resin, 180°C): 0.1 WT%
WT% Blowing Agent Dissolves in Resin ([2]; polystyrene resin, 200°C): 0.08 WT%
Limiting Solubility (wt % HFC) ([2]; polystyrene resin, Extruder Temp 180°C): 69 wt % HFC

CC(F)(F)F [HFC-143a, 1,1,1-trifluoroethane]
Limiting Solubility (wt % HFC) [2]: 69 wt % HFC
Solubility (wt % HFC) at 1 Atm of HFC Pres. 25°C [2]: 0.04 wt % HFC
Solubility (wt % HFC) at 1 Atm of HFC Pres. Ext Temp [2]: 0.07 wt % HFC
WT% Blowing Agent Dissolves in Resin ([2]; polystyrene resin, 20°C): 0.04 WT%
WT% Blowing Agent Dissolves in Resin ([2]; polystyrene resin, 60°C): 0.08 WT%
WT% Blowing Agent Dissolves in Resin ([2]; polystyrene resin, 100°C): 0.13 WT%
WT% Blowing Agent Dissolves in Resin ([2]; polystyrene resin, 140°C): 0.1 WT%
WT% Blowing Agent Dissolves in Resin ([2]; polystyrene resin, 180°C): 0.07 WT%
WT% Blowing Agent Dissolves in Resin ([2]; polystyrene resin, 200°C): 0.05 WT%

FC(F)(Cl)C(F)(F)Cl [HCFC-114, 1,2-dichloro-1,1,2,2-tetrafluoroethane]
Solubility (wt % HFC) at 1 Atm of HFC Pres. 25°C [1, 4]: 2.01 wt % HFC
Solubility (wt % HFC) at 1 Atm of HFC Pres. Ext Temp [1, 5]: 0.38 wt % HFC
Limiting Solubility (wt % HFC) [1, 6]: 78 wt % HFC

CCF [HFC-161, 1-fluoroethane]
Solubility (wt % HFC) at 1 Atm of HFC Pres. 25°C [1, 4]: 0.22 wt % HFC
Solubility (wt % HFC) at 1 Atm of HFC Pres. Ext Temp [1, 5]: 0.24 wt % HFC
Limiting Solubility (wt % HFC) [1, 6]: 89 wt % HFC

From patent EP0914370B1, “PROCESS FOR PRODUCING CLOSED CELL THERMOPLASTIC FOAMS CONTAINING HFC-134” (E.I. DU PONT DE NEMOURS AND COMPANY, priority 1996, dated 1998)
